Measured values published in PubChem BioAssay (NCI).
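1) Cells in 96-well plates. 2) Compound, 48 h, 5 concentrations. 3) Linear interpolation between surrounding doses. 4) Unreached endpoint = highest concentration. At the TGI there is no net growth.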

What was measured:
Assay in all cases: NCI tumour cell line growth inhibition, 48 h
786-0 renal = tested on: 786-0 renal
A498 renal = tested on: A498 renal
A549 NSCLC = tested on: A549 NSCLC
ACHN renal = tested on: ACHN renal
BT-549 breast = tested on: BT-549 breast
CAKI-1 renal = tested on: CAKI-1 renal
CCRF-CEM leukemia = tested on: CCRF-CEM leukemia
COLO 205 colon = tested on: COLO 205 colon
DU-145 prostate = tested on: DU-145 prostate
EKVX NSCLC = tested on: EKVX NSCLC
HCT-116 colon = tested on: HCT-116 colon
HCT-15 colon = tested on: HCT-15 colon
HL-60(TB) leukemia = tested on: HL-60(TB) leukemia
HOP-92 NSCLC = tested on: HOP-92 NSCLC
IGROV1 ovarian = tested on: IGROV1 ovarian
K-562 leukemia = tested on: K-562 leukemia
KM12 colon = tested on: KM12 colon
LOX IMVI melanoma = tested on: LOX IMVI melanoma
M14 melanoma = tested on: M14 melanoma
MALME-3M melanoma = tested on: MALME-3M melanoma
MCF7 breast = tested on: MCF7 breast
MDA-MB-231 breast = tested on: MDA-MB-231 breast
MDA-MB-435 = tested on: MDA-MB-435
MDA-N = tested on: MDA-N
MOLT-4 leukemia = tested on: MOLT-4 leukemia
NCI-H226 lung = tested on: NCI-H226 lung
NCI-H23 lung = tested on: NCI-H23 lung
NCI-H460 lung = tested on: NCI-H460 lung
NCI-H522 lung = tested on: NCI-H522 lung
NCI/ADR-RES ovarian = tested on: NCI/ADR-RES ovarian
OVCAR-3 ovarian = tested on: OVCAR-3 ovarian
OVCAR-4 ovarian = tested on: OVCAR-4 ovarian
OVCAR-5 ovarian = tested on: OVCAR-5 ovarian
OVCAR-8 ovarian = tested on: OVCAR-8 ovarian
PC-3 prostate = tested on: PC-3 prostate
RPMI-8226 leukemia = tested on: RPMI-8226 leukemia
RXF 393 renal = tested on: RXF 393 renal
SF-295 CNS = tested on: SF-295 CNS
SF-539 CNS = tested on: SF-539 CNS
SK-MEL-2 melanoma = tested on: SK-MEL-2 melanoma
SK-MEL-5 melanoma = tested on: SK-MEL-5 melanoma
SK-OV-3 ovarian = tested on: SK-OV-3 ovarian
SN12C renal = tested on: SN12C renal
SNB-75 CNS = tested on: SNB-75 CNS
SR leukemia = tested on: SR leukemia
SW-620 colon = tested on: SW-620 colon
TK-10 renal = tested on: TK-10 renal
U251 CNS = tested on: U251 CNS
UACC-257 melanoma = tested on: UACC-257 melanoma
UACC-62 melanoma = tested on: UACC-62 melanoma
UO-31 renal = tested on: UO-31 renal
HCC-2998 colon = tested on: HCC-2998 colon
HOP-62 NSCLC = tested on: HOP-62 NSCLC
HS 578T breast = tested on: HS 578T breast
HT29 colon = tested on: HT29 colon
SF-268 CNS = tested on: SF-268 CNS
SK-MEL-28 melanoma = tested on: SK-MEL-28 melanoma
SNB-19 CNS = tested on: SNB-19 CNS
T-47D breast = tested on: T-47D breast

`C=C1c2nc3ccccc3n2C=C(c2ccccc2)N1c1ccc(OC)cc1` gave a TGI (786-0 renal) of 56.8 µM, a TGI (A498 renal) of over 100 µM and a TGI (A549 NSCLC) of over 100 µM. It also gave a TGI (ACHN renal) of 28.7 µM, a TGI (BT-549 breast) of 38.3 µM and a TGI (CAKI-1 renal) of 64 µM. For the same compound, the TGI (CCRF-CEM leukemia) was over 100 µM, the TGI (COLO 205 colon) was over 100 µM and the TGI (DU-145 prostate) was over 100 µM. For the same compound, the TGI (EKVX NSCLC) was over 100 µM, the TGI (HCT-116 colon) was 59.9 µM and the TGI (HCT-15 colon) was 20.3 µM. The TGI (HL-60(TB) leukemia) was over 100 µM, the TGI (HOP-92 NSCLC) was over 100 µM and the TGI (IGROV1 ovarian) was 35.8 µM. It also gave a TGI (K-562 leukemia) of over 100 µM, a TGI (KM12 colon) of 24.3 µM and a TGI (LOX IMVI melanoma) of over 100 µM. For the same compound, the TGI (M14 melanoma) was 52.6 µM, the TGI (MALME-3M melanoma) was 44.8 µM and the TGI (MCF7 breast) was 24.1 µM. The TGI (MDA-MB-231 breast) was over 100 µM, the TGI (MDA-MB-435) was over 100 µM and the TGI (MDA-N) was over 100 µM. It also gave a TGI (MOLT-4 leukemia) of over 100 µM, a TGI (NCI-H226 lung) of 35.6 µM and a TGI (NCI-H23 lung) of 74.4 µM. The TGI (NCI-H460 lung) was 24 µM, the TGI (NCI-H522 lung) was 16.1 µM and the TGI (NCI/ADR-RES ovarian) was 71.4 µM. It also gave a TGI (OVCAR-3 ovarian) of over 100 µM, a TGI (OVCAR-4 ovarian) of over 100 µM and a TGI (OVCAR-5 ovarian) of over 100 µM. The TGI (OVCAR-8 ovarian) was 55 µM, the TGI (PC-3 prostate) was over 100 µM and the TGI (RPMI-8226 leukemia) was over 100 µM. The TGI (RXF 393 renal) was 83.5 µM, the TGI (SF-295 CNS) was 25.3 µM and the TGI (SF-539 CNS) was 26.9 µM. It also gave a TGI (SK-MEL-2 melanoma) of over 100 µM, a TGI (SK-MEL-5 melanoma) of 38.2 µM and a TGI (SK-OV-3 ovarian) of over 100 µM. For the same compound, the TGI (SN12C renal) was over 100 µM, the TGI (SNB-75 CNS) was 21.2 µM and the TGI (SR leukemia) was over 100 µM. For the same compound, the TGI (SW-620 colon) was over 100 µM, the TGI (TK-10 renal) was 26.1 µM and the TGI (U251 CNS) was over 100 µM. For the same compound, the TGI (UACC-257 melanoma) was over 100 µM, the TGI (UACC-62 melanoma) was 62.2 µM and the TGI (UO-31 renal) was 26.6 µM.
Work on `CNC(=O)OCC1=C(COC(=O)NC)CN(c2ccccc2)C1` yielded a TGI (786-0 renal) of over 100 µM, a TGI (A498 renal) of over 100 µM and a TGI (A549 NSCLC) of over 100 µM. For the same compound, the TGI (ACHN renal) was over 100 µM, the TGI (BT-549 breast) was over 100 µM and the TGI (CCRF-CEM leukemia) was over 100 µM. The TGI (COLO 205 colon) was over 100 µM, the TGI (DU-145 prostate) was over 100 µM and the TGI (EKVX NSCLC) was over 100 µM. For the same compound, the TGI (HCC-2998 colon) was over 100 µM, the TGI (HCT-116 colon) was over 100 µM and the TGI (HCT-15 colon) was over 100 µM. The TGI (HOP-62 NSCLC) was over 100 µM, the TGI (HOP-92 NSCLC) was over 100 µM and the TGI (HS 578T breast) was over 100 µM. The TGI (HT29 colon) was over 100 µM, the TGI (IGROV1 ovarian) was over 100 µM and the TGI (K-562 leukemia) was over 100 µM. It also gave a TGI (KM12 colon) of over 100 µM, a TGI (LOX IMVI melanoma) of over 100 µM and a TGI (M14 melanoma) of over 100 µM. For the same compound, the TGI (MALME-3M melanoma) was over 100 µM, the TGI (MCF7 breast) was over 100 µM and the TGI (MDA-MB-231 breast) was over 100 µM. For the same compound, the TGI (MDA-MB-435) was over 100 µM, the TGI (MDA-N) was over 100 µM and the TGI (MOLT-4 leukemia) was over 100 µM. It also gave a TGI (NCI-H226 lung) of over 100 µM, a TGI (NCI-H23 lung) of over 100 µM and a TGI (NCI-H460 lung) of over 100 µM. It also gave a TGI (NCI/ADR-RES ovarian) of over 100 µM, a TGI (OVCAR-3 ovarian) of over 100 µM and a TGI (OVCAR-4 ovarian) of over 100 µM. It also gave a TGI (OVCAR-5 ovarian) of over 100 µM, a TGI (OVCAR-8 ovarian) of over 100 µM and a TGI (PC-3 prostate) of over 100 µM. The TGI (RPMI-8226 leukemia) was over 100 µM, the TGI (RXF 393 renal) was over 100 µM and the TGI (SF-268 CNS) was over 100 µM. It also gave a TGI (SF-295 CNS) of over 100 µM, a TGI (SF-539 CNS) of over 100 µM and a TGI (SK-MEL-2 melanoma) of over 100 µM. For the same compound, the TGI (SK-MEL-28 melanoma) was over 100 µM, the TGI (SK-MEL-5 melanoma) was over 100 µM and the TGI (SK-OV-3 ovarian) was over 100 µM. The TGI (SN12C renal) was over 100 µM, the TGI (SNB-19 CNS) was over 100 µM and the TGI (SNB-75 CNS) was over 100 µM. The TGI (SR leukemia) was over 100 µM, the TGI (SW-620 colon) was over 100 µM and the TGI (T-47D breast) was over 100 µM. For the same compound, the TGI (TK-10 renal) was over 100 µM, the TGI (U251 CNS) was over 100 µM and the TGI (UACC-257 melanoma) was over 100 µM. It also gave a TGI (UACC-62 melanoma) of over 100 µM and a TGI (UO-31 renal) of over 100 µM.
